Several values for one entry are separate records, joined by “and”; a condition that tells them apart may be missing. Equal values may be shown once. Entries after “also recorded” stand apart in the source; their conditions may differ.
What was measured:
[1] = test system: T. gondii ME49 bradyzoites; test: Gametes and intracellular oocyst walls (AO2, 3G4, PCR) in infected cat intestinal monolayers; type: cell-based, Toxoplasma gondii; details: cultured cat cells, 200 μM fatty acid, 7 days of infection
Method: FIGS. 7A-H. Identification of gametes and intracellular oocysts in cat tissue culture. Cat intestinal organoids were disassociated by trypsin then grown as monolayers on glass slides. […] After 7 days, monolayers were incubated with mouse anti-AO2 (panels A-C) or mouse monoclonal IgM 3G4 (panels E-G), The amiloride-sensitive amine oxidase, copper-containing protein 2 (AO2) is an enzyme exclusively expressed in macrogametes and early oocysts and has a possible role in oocyst wall biogenesis. […] 3G4 is a mouse monoclonal antibody produced by immunizing mice with purified oocyst walls, thus it is a marker of oocyst wall biogenesis. Only monolayers supplemented with linoleic acid (G) had positive 3G4 vacuoles. All panels are 20 μm square with a 5 μm white size bar in the lower right corner. D) Markers for macrogamete and microgamete expression were also evaluated by PCR. Cat intestinal monolayers were grown in 24-well plates until confluency and then infected with T. gondii bradyzoites in duplicate using the same conditions as above. 7 days post-infection, RNA was extracted with TRIzol and cDNA was synthesized using an oligo (dT) primer to only amplify mRNA. AO2 was again used as a marker for macrogametes and the expected PCR product is 218 bp. To assess microgamete presence, we selected the gene TgME49_306338, which is overexpressed in the gametes stage, corresponded to day 7 post-infection in cats and has 44% identity to a protein expressed in the flagella of the motile green algae Chlamydomonas reinhardtii. The expected PCR product for TgME49_306338 is 160 bp. TUB1A was used as an input control and results in a 172 bp product. NO RT corresponds to a cDNA synthesis reaction without the addition of reverse transcriptase (RI) as a control for genomic DNA contamination. Equivalent amounts of cDNA per sample were used as a template for each PCR reaction, and the products were separated on an acrylamide gel. […] H) The number of positive oocyst walls stained with 3G4 were quantified. […] The number of positive oocyst walls were counted in each slide and divided by the area of slide in cm^2.
Immunofluorescence. Intestinal organoid monolayers or mouse fecal samples were fixed in 3.7% formaldehyde in PBS for 20 minutes, permeabilized with 0.2% triton X-100 (Sigma) in PBS at room temperature for one hour and then blocked with 3% BSA in PBS at room temperature for one hour. Primary antibody was incubated at 4° C. overnight in 0.2% v/v Triton x-100 and 3% BSA in PBS (1:100 mouse anti-GRA11B, 1:100 rabbit anti-BRP1, 1:100 mouse anti-AO2, 1:50 monoclonal mouse anti-ZO1 (Santa Cruz) or 1:25 mouse 288 IgM anti-oocyst wall 3G4. Sporulated oocysts from mouse feces were dried onto slides, fixed and permeabilized with ice cold acetone for 30 minutes and incubated with 1:20 mouse 4B6 to the visualize the sporocyst. Slides were incubated one hour with the specific secondary antibody (1:500 goat anti-rabbit Alexa Fluor 488 and 1:500 goat anti-mouse Alexa Fluor 594) at room temperature for one hour and then washed 3 times with PBS. Cells nuclei were stained with 10 μM DAPI (Sigma). Slides were mounted in Vectashield antifade mounting medium (VectorLabs). Samples were imaged on Zeiss Axioplan III equipped with a triple-pass (DAPI/fluorescein isothiocyanate [FITC]/Texas Red) emission cube, differential interference contrast optics, and a monochromatic Axiocam camera operated by Zen software (Zeiss) and processed using ImageJ (Fiji packet).
PCR of cat intestinal monolayers. […]

[2] = test system: T. gondii ME49 bradyzoites; test: Merozoite markers GRA11B/BRP1, immunofluorescence, infected cat intestinal monolayers; type: cell-based, Toxoplasma gondii; details: 200 μM fatty acid, 5 days of infection
Method: FIGS. 6A-B. Quantification of merozoites in cat tissue culture. A) Cat intestinal organoids were disassociated by trypsin then grown as monolayers on glass slides. Slides were divided into three different groups: not supplemented with fatty acid, supplemented with 200 μM oleic acid or supplemented 200 μM linoleic acid. Monolayers were infected with T. gondii MEM bradyzoites purified from brains of chronic infected mice at a 1:10 MOI. Five days after infection, staining for GRA11B and BRP1 along with DAPI, allowed the percentage of vacuoles positive for GRA11B and BRP1out of the total vacuoles was determined. Total number of parasitophorous vacuoles were counted by positive DAPI staining and confirmed by morphology with DIC. At least 50 parasitophorous vacuoles were counted per replicate. Three biological replicates were counted and on average 35% of the total vacuoles were positive far both GRA11B and BRP1 in the linoleic acid supplemented monolayers. *p-value=0.0126 with N=3 by two-tailed unpaired t test. Straining for both BRP1 and GRA11B was used to ensure that merozoite stages were counted. […] BRP1 is a rhoptry protein that was initially found in bradyzoites; however, it is also expressed in merozoite. […]

[3] = test system: T. gondii ME49 bradyzoites; test: qPCR of SAG1, GRA11B, TUB1A on cDNA of infected cat intestinal monolayers; type: cell-based, Toxoplasma gondii; details: cat intestinal monolayers cDNA
Method: FIGS. 6A-B. Quantification of merozoites in cat tissue culture. A) Cat intestinal organoids were disassociated by trypsin then grown as monolayers on glass slides. Slides were divided into three different groups: not supplemented with fatty acid, supplemented with 200 μM oleic acid or supplemented 200 μM linoleic acid. Monolayers were infected with T. gondii MEM bradyzoites purified from brains of chronic infected mice at a 1:10 MOI. Five days after infection, staining for GRA11B and BRP1 along with DAPI, allowed the percentage of vacuoles positive for GRA11B and BRP1out of the total vacuoles was determined. Total number of parasitophorous vacuoles were counted by positive DAPI staining and confirmed by morphology with DIC. At least 50 parasitophorous vacuoles were counted per replicate. Three biological replicates were counted and on average 35% of the total vacuoles were positive far both GRA11B and BRP1 in the linoleic acid supplemented monolayers. *p-value=0.0126 with N=3 by two-tailed unpaired t test. Straining for both BRP1 and GRA11B was used to ensure that merozoite stages were counted. […] BRP1 is a rhoptry protein that was initially found in bradyzoites; however, it is also expressed in merozoite. B) Cat intestinal monolayers were grown as described in panel A, except monolayers were quenched by TRIzol 5 days post-infection, RNA was extracted, and cDNA was synthesized using an oligo (dT) primer to amplify mRNA, Expression of SAG1 and GRA11B were quantified by qPCR and the fold change calculated in comparison with uninfected cells. TUB1A was used to normalize gene expression across samples.
Real-time PCR on ileum cDNA. Z-DNA binding protein deletion mice ice with and without delta-6-desaturase inhibitor treatment were euthanized 7 days post infection. The ileum of each mouse was removed and homogenized in 1 mL of TRIzol. Total RNA was isolated according to manufacturer's protocol (Invitrogen) and treated with amplification grade Dnase I. cDNA was generated using the Invitrogen SuperScript III First-Strand Synthesis kit with random hexamer primers. GRA11B and SAG1 were used as markers of sexual and asexual stages, respectively. The T. gondii housekeeping gene TUB1A was used to normalize target gene expression. Real-time quantitative PCR was performed using Bio-Rad iTaq Universal SYBR Green Supermix on 311 an Applied Biosystems StepOnePlus Real-Time PCR system. The efficiency of each primer set was calculated from the slope of a 1:10 dilution standard curve of tachyzoite gDNA, where E=10^(−1/slope). The Pfaffl method (Pfaffl, 2001), which accounts for differences in efficiencies, was then used to calculate the relative gene expression of GRA11B and SAG1 per sample, in triplicate. Only wells with one melt curve temperature were used, indicating a single product. Primer sequences were as follows: […]

[4] = whole animal experiments (He et al., 2012); cited from earlier work
T. gondii [5] = test: Real-time PCR (SAG1) on gDNA of mouse fecal samples; type: in vivo, Toxoplasma gondii; details: mice fed linoleic acid, with or without SC26196
Method: (§1) Delta-6-desaturase inhibition. SC 26196 (Cayman) was solubilized in DMSO and used at 20 μM in mouse organoid monolayers. For in vivo treatment, the inhibitor was solubilized in 0.5% m/v methylcellulose and the mice were given 50 mg/kg every 12 hours by oral gavage (He et al., 2012). 4-week old C57BL/6J female mice deleted in Z-DNA-binding protein (Pittman et al., 2016) were divided into four different groups: uninfected control, T. gondii-infected without fatty acid supplementation, T. gondii infected with linoleic acid supplementation, and T. gondii-infected with linoleic acid and SC 26196 inhibitor. Each mouse supplemented with linoleic acid received 10 μL of 99% linoleic acid oil (MilliporaSigma Cat #843483) suspended in 0.5% Methylcellulose per day by oral gavage. Mice were infected with 1000 brain cysts purified as described above by oral gavage and euthanized 7 days post infection. Sample size was at least 2 mice per group and the experiment was repeated 5 times. Alternatively, each mouse was infected with one mouse brain at least 2 months postinfection with at least 1000 cysts. Mice were treated with SC 26196 until day 5 postinfection. Feces were collected from days 5-14 and oocysts enumerated by microscopy.
Real-time PCR on fecal samples. […] A standard curve was generated using a dilution series of 101-105 parasites per well amplified using the SAG1 primer set described above, based on a gDNA sample with known parasite quantity. […]
[formula] […] The calculated copy numbers of each sample were normalized based on the ng of nucleic acid used as PCR template. […]
Statistical methods. […] The difference between the mean target gene copy numbers was analyzed by two-tailed unpaired t tests. […] The difference between the mean relative expression of each target gene was analyzed by two-tailed unpaired t tests.

murine organoids = test: Monolayer formation of murine organoids with delta 6-desaturase inhibitor; type: cell-based, mouse; details: about 2 μM to 200 μM, medium with about 200 μM linoleic acid
T. gondii [6] = test: Oocyst counts in mouse feces by microscopy; type: in vivo, Toxoplasma gondii; details: mice, inhibitor every 12 hours for the 7 days of infection
Method: as §1

[7] = test system: T. gondii ME49 bradyzoites; test: Real-time PCR on ileum cDNA of infected Z-DNA binding protein knock out mice; type: in vivo, Toxoplasma gondii; details: mice, linoleic acid and SC26196 50 mg/kg every 12 hours by oral gavage, seven days after infection
Method: as §1
Real-time PCR on ileum cDNA. Z-DNA binding protein deletion mice ice with and without delta-6-desaturase inhibitor treatment were euthanized 7 days post infection. The ileum of each mouse was removed and homogenized in 1 mL of TRIzol. Total RNA was isolated according to manufacturer's protocol (Invitrogen) and treated with amplification grade Dnase I. cDNA was generated using the Invitrogen SuperScript III First-Strand Synthesis kit with random hexamer primers. GRA11B and SAG1 were used as markers of sexual and asexual stages, respectively. The T. gondii housekeeping gene TUB1A was used to normalize target gene expression. Real-time quantitative PCR was performed using Bio-Rad iTaq Universal SYBR Green Supermix on 311 an Applied Biosystems StepOnePlus Real-Time PCR system. The efficiency of each primer set was calculated from the slope of a 1:10 dilution standard curve of tachyzoite gDNA, where E=10^(−1/slope). The Pfaffl method (Pfaffl, 2001), which accounts for differences in efficiencies, was then used to calculate the relative gene expression of GRA11B and SAG1 per sample, in triplicate. Only wells with one melt curve temperature were used, indicating a single product. Primer sequences were as follows:
Statistical methods. All real-time PCR fecal samples were run in triplicate technical replicates. The difference between the mean target gene copy numbers was analyzed by two-tailed unpaired t tests. The real-time PCR intestinal samples were run in triplicate from two biological replicates per group. The difference between the mean relative expression of each target gene was analyzed by two-tailed unpaired t tests.

[8] = biological replicates 1 and 2, wells 1-3

| Structure (SMILES) | number of positive oocyst walls stained with 3G4 [1] | parasites undergoing sexual development / merozoite stage markers GRA11B and BRP1 (staining) [2] | GRA11B Ct mean ([3]; biological replicates 1 and 2) | SAG1 Ct mean ([3]; biological replicates 1 and 2) | GRA11B raw Ct values [3, 8] | SAG1 raw Ct values [3, 8] | anti-inflammatory effect [4] | T. gondii genomic DNA in mouse fecal samples (qPCR, SAG1 primers) (T. gondii [5]) | monolayer formation (murine organoids) | oocysts produced (T. gondii [6]) | expression of merozoite marker GRA11B, qPCR of ileum cDNA [7] |
| --- | --- | --- | --- | --- | --- | --- | --- | --- | --- | --- | --- |
| CCCCCCCC/C=C\CCCCCCCC(=O)O [oleic acid] | none | not | 32.53 and 31.82 | 20.83 and 19.56 | 32.44 and 31.77 (2×) and 32.73 and 31.91 and 32.43 | 20.87 and 19.66 and 20.88 and 19.54 and 20.75 and 19.46 | – | – | – | – | – |
| N#CC(CCCN1CCN(/N=C/c2cccnc2)CC1)(c1ccccc1)c1ccccc1 [SC26196] | – | – | – | – | – | – | effective as an anti-inflammatory agent | detectable only in mice treated with SC26196; also recorded: detected only in mice treated with SC26196 | did not inhibit monolayer formation | 1000-10,000 oocysts/gram dry feces | significantly up regulated only in the presence of SC26196 |

Reference: US12171821B2, “Toxoplasma gondii vaccine” (priority 2018, dated 2024)
